US8404672B2, “Substituted heterocyclic compounds” (Bristol-Meyers Squibb Company, priority 2009, dated 2013)

Key:
[1] = molecular target: T1, S1P1 (membranes from S1P1/CHO cells) (Homo sapiens, UniProt P21453); experiment: Method A: Receptor [35S] GTPγS Binding Assay, S1P1; assay type: biochemical; conditions: Method A; S1P1/CHO membranes
T1 construct: expressed in transfected cells; host or cells: S1P1/CHO cells
Procedure: Method A: Receptor [35S] GTPγS Binding Assays
Compounds were loaded in a 384 Falcon v-bottom plate (0.5 μl/well in a 3-fold dilution). Membranes prepared from S1P1/CHO cells or EDG3-Gal5-bla HEK293T cells were added to the compound plate (40 μl/well, final protein 3 μg/well) with MULTIDROP®. [^35S]GTP (1250 Ci/mmol, Perkin Elmer) was diluted in assay buffer: 20 mM HEPES, pH 7.5, 10 mM MgCl2, 150 mM NaCl, 1 mM EGTA, 1 mM DTT, 10 μM GDP, 0.1% fatty acid free BSA, and 10 μg/ml Saponin to 0.4 nM. 40 μl of the [^35S] GTP solution was added to the compound plate with a final concentration of 0.2 nM. The reaction was kept at room temperature for 45 min. At the end of incubation, all the mixtures in the compound plate were transferred to a 384 well FB filter plates via GPCR robot system. The filter plate was washed with water 4 times by using the modified manifold Embla plate washer and dried at 60° C. for 45 min. 30 μA of MicroScint 20 scintillation fluid was added to each well for counting at Packard TOPCOUNT®. EC50 is defined as the agonist concentration that corresponds to 50% of the Ymax (maximal response) obtained for each individual compound tested.
(§1) Compounds of the present invention and Comparative Compound A were tested in the Receptor [35S] GTPγS Binding Assays (Method A) and Receptor [35S] In some instances, the value is an average of multiple experiments where N is the number of experiments conducted that provided satisfactory dose response curves. When more than one batch of an example was tested, the value presented is from a batch which allowed a comparison of GTPγS S1P1 and GTPγS S1P3 in which the most number of experiments were performed. Preferably, the same batch was examined in Method A and Method B. Data was not averaged across different batches of an example compound.

circulating lymphocytes [2] = experiment: Blood Lymphocyte Reduction Assay (BLR) in mice; assay type: in vivo; conditions: BALB/c mice, oral, vs vehicle group
Procedure: (§2) Blood Lymphocyte Reduction Assay (BLR) in Rodents
(§3) Lewis rats or BALB/c mice were dosed orally with test article (as a solution or suspension in the vehicle) or vehicle alone (polyethylene glycol 300, “PEG300”). Blood was drawn at 4 hr and 24 h by retro-orbital bleeding. Blood lymphocyte counts were determined on an ADVIA® 120 Hematology Analyzer (Siemens Healthcare Diagnostics). The results were measured as a reduction in the percentage of circulating lymphocytes as compared to the vehicle treated group at the 4 hr and 24 hr measurement. The results represent the average results of all animals within each treatment group (n=3-4).
(§4) A compound of the present invention was tested in the Blood Lymphocyte Reduction assay (BLR) described hereinabove and the results are shown in Table D for rats and Table E for mice.

circulating lymphocytes [3] = experiment: Blood Lymphocyte Reduction Assay (BLR) in rats; assay type: in vivo; conditions: Lewis rats, oral, vs vehicle group
Procedure: as §2, §3, §4

human S1P1 = molecular target: T2, human S1P1 (Homo sapiens, UniProt P21453); experiment: S1P1 Binding Assay (33P-S1P radioligand competition, CHO cell membranes); conditions: membranes from CHO cells expressing human S1P1; 0.03 nM 33P-S1P; 60 min room temperature
T2 construct: expressed in transfected cells; host or cells: CHO cells
Procedure: Membranes were prepared from CHO cells expressing human S1P1. Cells were dissociated in buffer containing 20 mM HEPES, pH 7.5, 50 mM NaCl, 2 mM EDTA and Protease Inhibitor cocktail (Roche), and disrupted on ice using the Polytron homogenizer. The homogenate was centrifuged at 20,000 rpm (48,000 g) and the supernatant was discarded. The membrane pellets were resuspended in buffer containing 50 mM HEPES, pH 7.5, 100 mM NaCl, 1 mM MgCl2, 2 mM EDTA and stored in aliquots at −80° C. after protein concentration determination.
Membranes ([…]) and 0.03 nM final concentration of ^33P—S1P ligand (1 mCi/ml, American Radiolabeled Chemicals) were added to the compound plates. Binding was performed for 60 min at room temperature, terminated by collecting the membranes onto GF/B filter plates, and radioactivity was measured by TOPCOUNT®. The competition data of the test compounds over a range of concentrations was plotted as percentage inhibition of radioligand specific binding. The IC50 is defined as the concentration of competing ligand needed to reduce specific binding by 50%.
Compounds of the present invention and Comparative Compound A were tested in the S1P1 binding assay described hereinabove and the results rounded to two digits, shown in Table A were obtained. In some instances, the value is an average of multiple experiments where N is the number of experiments conducted that provided satisfactory dose response curves. When more than one batch of an example was tested, the value presented is from the batch which allowed a comparison of GTPγS S1P1 and GTPγS S1P3 in Method A (Data shown in Table B). Data was not averaged across different batches of an example compound.

[4] = molecular target: T3, S1P3 (membranes from S1P3 transfected CHO cells) (Homo sapiens, UniProt Q99500); experiment: Method B: Receptor [35S] GTPγS SPA Binding Assay, S1P3; assay type: biochemical
T3 construct: expressed in transfected cells; host or cells: CHO cells
Procedure: Method B: Receptor [35S] GTPγS SPA Binding Assays
Membranes prepared from S1P1 or S1P3 transfected CHO cells ([…]) were incubated in 96-well white plates (CORNING® 3693) with test compounds diluted in DMSO, in 50 μl of reaction mixture containing 7.5 μl WGA-PVT beads (20 mg/ml), and 5 μM GDP, 20 mM HEPES pH 7.4, 100 mM NaCl, 1 mM EDTA, 5 mM MgCl2, 10 μg/ml saponin, 0.1% BSA, and 1 μM leupeptin. The assay was initiated with the addition of […] of 0.2 nM [^35S]-GTPγS (1250 Ci/mmol; NEN) in assay buffer. After 90 min incubation at room temperature, spin the plate at 1000 rpm for 5 min. The bound radionuclides were measured at TOPCOUNT®, expressed as % response relative to S1P (1 μM) activation. Data was analyzed using the four parameter logistic equation in Excel. The four parameters in the equation, Y=A+((B−A)/(1+((EC50/X)^D))), are described as following: A is the Y value (agonist activity) at the bottom plateau; B is the Y value at the top plateau; EC50 is the X value (agonist concentration) when the response is halfway between bottom and top; D is Hill coefficient. Curves were not generated for compounds having Ymax values were below 50%.
as §1

T2 sequence (P21453 whole entry): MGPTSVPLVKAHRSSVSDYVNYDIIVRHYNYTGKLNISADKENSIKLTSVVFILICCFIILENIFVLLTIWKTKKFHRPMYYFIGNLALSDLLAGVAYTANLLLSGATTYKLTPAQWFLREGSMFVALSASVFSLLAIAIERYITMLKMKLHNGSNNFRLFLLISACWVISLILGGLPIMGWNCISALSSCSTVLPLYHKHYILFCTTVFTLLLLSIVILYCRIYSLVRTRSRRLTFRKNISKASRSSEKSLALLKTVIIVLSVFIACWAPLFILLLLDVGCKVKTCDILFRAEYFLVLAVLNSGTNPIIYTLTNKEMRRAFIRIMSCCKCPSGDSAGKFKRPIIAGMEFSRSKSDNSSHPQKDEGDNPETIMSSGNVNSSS
T1 sequence (P21453 whole entry): as above
T3 sequence (Q99500 whole entry): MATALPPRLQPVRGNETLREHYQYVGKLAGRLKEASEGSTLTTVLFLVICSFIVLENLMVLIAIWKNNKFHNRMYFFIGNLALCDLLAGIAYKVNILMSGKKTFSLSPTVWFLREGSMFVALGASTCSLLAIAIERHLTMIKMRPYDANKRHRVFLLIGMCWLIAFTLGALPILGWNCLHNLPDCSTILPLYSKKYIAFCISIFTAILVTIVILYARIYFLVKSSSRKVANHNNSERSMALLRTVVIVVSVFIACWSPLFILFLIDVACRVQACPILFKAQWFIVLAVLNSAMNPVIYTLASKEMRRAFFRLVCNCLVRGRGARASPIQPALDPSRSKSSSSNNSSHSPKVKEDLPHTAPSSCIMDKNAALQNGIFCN

## O=C(O)C1CN(Cc2ccc(-c3noc(-c4onc(-c5ccccn5)c4C(F)(F)F)n3)cc2)C1 [Example 1, 1-(4-(5-(3-(Pyridin-2-yl)-4-(trifluoromethyl)isoxazol-5-yl)-1,2,4-oxadiazol-3-yl)benzyl)azetidine-3-carboxylic acid]
[1]
  EC50: 1.4 nM
Circulating lymphocytes [2]; 0.008 mg/kg
  % reduction in lymphocytes at 4 hr.: 13%
  % reduction in lymphocytes at 24 hr.: 8%
Circulating lymphocytes [2]; 0.04 mg/kg
  % reduction in lymphocytes at 4 hr.: 67%
  % reduction in lymphocytes at 24 hr.: 39%
Circulating lymphocytes [2]; 0.2 mg/kg
  % reduction in lymphocytes at 4 hr.: 82%
  % reduction in lymphocytes at 24 hr.: 74%
Circulating lymphocytes [2]; 1.0 mg/kg
  % reduction in lymphocytes at 4 hr.: 83%
  % reduction in lymphocytes at 24 hr.: 77%
Circulating lymphocytes [3]; 0.3 mg/kg
  % reduction in lymphocytes at 4 hr.: 82%
  % reduction in lymphocytes at 24 hr.: 48%
Circulating lymphocytes [3]; 1.0 mg/kg
  % reduction in lymphocytes at 4 hr.: 85%
  % reduction in lymphocytes at 24 hr.: 80%
Human S1P1
  IC50: 0.21 nM
[4]
  EC50: 6.2 µM
